Results from patent publication US11220629B2, “Two-photon fluorescent compounds for specific lipid droplet imaging in live cells and deep tissues at ultralow concentration” (THE HONG KONG UNIVERSITY OF SCIENCE AND TECHNOLOGY, priority 2018, dated 2022).
Like-named read-outs stand apart in the source and are kept apart here.

Assays:
[1] = system: LDs in HeLa cells; assay: One-photon LDs imaging at 50 nM; assay type: cell-based; conditions: 405 nm laser intensity 12%
Experimental: One-photon imaging experiments in HeLa cells stained with 50 nM of NAP-Ph, NAP-Br, NAP-CF3, and NAP-Py were performed, and Nile Red was used as comparison. […] As far as we know, this is the lowest concentration used for LDs imaging.

[2] = Absorption and fluorescence (photophysical properties) in solvent and solid state; assay type: physicochemical; conditions: for Φ (fluorescence quantum yield): integrating sphere; for Solvatochromism: toluene, diethyl ether, THF, acetone, DMSO
Experimental: ^1H and ^13C NMR spectra were measured on Bruker ARX 400 NMR spectrometers using CDCl3 as the deuterated solvent. High-resolution mass spectra (HRMS) were recorded on a Finnegan MAT TSQ 7000 Mass Spectrometer System operating in a MALDI-TOF mode. UV absorption spectra were taken on a Milton Ray Spectronic 3000 array spectrophotometer. Steady-state fluorescence spectra were recorded on a Perkin Elmer LS 55 spectrometer. Fluorescence images were collected on Olympus BX 41 fluorescence microscope. Laser confocal scanning microscope images were collected on Zeiss laser scanning confocal microscope (LSM7 DUO) and analyzed using ZEN 2009 software (Carl Zeiss). Two-photon fluorescence imaging was carried out on Olympus FV 300 laser confocal microscope. In two-photon experiments, the excitation wavelengths were 860 nm from a Ti:sapphire femtosecond laser source (coherent chamelon ultra) and the incident power on samples was modified by means of an attenuator and examined with a power monitor (Coherent). A multiphoton emission filter (FF01-750; Semrock) was used to block the IR laser.
The absorption and fluorescence (FL) data of the NAP AIEgens were investigated, and corresponding spectra are shown in FIGS. 5A-5H, 6A-6E, and FIG. 7.
This phenomenon is probably due to the changes in morphology and size of the aggregates formed in the water-THF mixture with high water fractions. […] It should be noted that the FL of NAP AIEgens in high water fraction (fw>90%) increased only several-fold compared with that in THF or CH3CN (FIG. 5G), probably because of formation of loosely packed aggregates. […] The FL spectra of NAP AIEgens were further measured in different polar solvents (FIGS. 6A-6E). […] As for NAP-CF3, the reason for blue-shifted FL in the solid state was likely its twisted structure (FIG. 2E), resulting in only […] π-π interaction rather than J-aggregation (FIG. 2B). […] The FL quantum yields (QYs, Table 1) of NAP AIEgens were measured by using an integrating sphere. […] It should be pointed out that the solid FL QY of NAP-Py^+ was low, likely due to a narrow energy gap and enhanced nonradiative transitions in NIR fluorescent dyes (FIG. 7). Furthermore, longer FL lifetimes of NAP AIEgens in the solid state than those in solvents also verified that restriction of intramolecular motion (RIM) can prohibit energy dissipation via non-radiative channels and enhance the FL of NAP AIEgens (Table 1).

[3] = system: LDs in HeLa cells; assay: Co-staining imaging with LDs dye Nile Red (CLSM); assay type: cell-based; conditions: 100 nM
Experimental: (§1) To confirm the intracellular location of NAP AIEgens in live cells, co-staining imaging experiments were performed. […] It is believed that positive-charged dyes like NAP-Py^+ can stain mitochondria due to the high negative membrane potential of mitochondria. To determine why other NAP AIEgens without positive charge locate in LDs, additional investigation was conducted.

[4] = system: LDs in live mice liver tissue; assay: Ex vivo two-photon imaging of live mice liver tissue; conditions: 1 μM, 1 h incubation, λex 860 nm
Experimental: TP fluorescence imaging outperforms imaging in one-photon mode as a result of high penetration in tissues and low background fluorescence because of near-infrared light excitation and low excitation power. […] After incubation with NAP-CF3 (1 μM) for 1 h, bright spherical spots with TP fluorescence of NAP-CF3 were observed (FIG. 18). For the live mice liver tissue without NAP-CF3, however, only low background fluorescence was obtained. […] To investigate whether NAP-CF3 could show LDs-specific staining in deep live mice liver tissue, TP fluorescence images along the Z-axis were captured. As shown in FIGS. 19A-19F, the fluorescent signal of the spherical spot could be clearly detected at different Z-axis depths even up to 70 μm. […] These excellent TP tissue imaging properties render NAP-CF3 a tremendous tool to visualize LDs-associated biomedical application in live tissues.

[5] = system: HeLa cells; assay: Photostability under continuous confocal laser irradiation; assay type: cell-based; conditions: continuous irradiation for 10 min; NAP AIEgens 405 nm, Nile Red 543 nm, power 12%
Experimental: FIG. 20 is a graph depicting photostability of NAP AIEgens and Nile Red in HeLa cells under continuous irradiation (irradiation conditions: for NAP AIEgens, 405 nm laser, laser power of 12%; for Nile Red, 543 nm laser, laser power of 12%).
Considering the above-mentioned excellent bioimaging characteristics of these NAP AIEgens, further experiments were performed to evaluate their photostability and cytotoxicity. The photostability of NAP AIEgens was evaluated by continuous irradiation with confocal lasers, and data was collected every second. […] Furthermore, standard MTT (3-(4,5-dimethylthiazol-2-yl)-2,5-diphenyl-2H-tetrazolium) assays were performed to evaluate the cytotoxicity of NAP AIEgens in live cells.

[6] = Two-photon absorption (TPA) cross section of aggregate suspensions, fluorescein as standard; assay type: physicochemical; conditions: aggregate suspension in H2O containing 1% CH3CN
Experimental: With fluorescein as the standard, the TPA cross sections (δ) of NAP AIEgens at different wavelengths were also measured (FIG. 8F). […] To further acquire the TPEF, NAP AIEgens in solid states were directly excited at 800 nm (intensity of about 0.35 mW).

[7] = system: mitochondria in HeLa cells; assay: Co-staining imaging with mitochondria dye MitoTracker Deep Red FM; assay type: cell-based; conditions: NAP-Py^+ 1 μM, MTDR 100 nM
Experimental: as §1

[8] = THF or CH3CN (CH3CN for NAP-Py^+)
[9] = THF or CH3CN (CH3CN for NAP-Py^+), listed as NAP-Py^+

Compound	αAIE = Φsolid/Φsolvent [2]	λem max ([2]; Solid) [nm]	τ (fluorescence lifetime) ([2]; Solid) [ns]	Φ (fluorescence quantum yield) ([2]; Solid)	Stokes shift [2, 8] [nm]	λabs max [2, 8] [nm]	λem max [2, 8] [nm]	τ (fluorescence lifetime) [2, 8] [ns]	Φ (fluorescence quantum yield) [2, 8]	Solvatochromism [2]	Fluorescence intensity change under irradiation [5]	LDs staining [1]	Pearson's coefficient with Nile Red [3]	other results
COc1c(/C=C(\C#N)c2cc(C(F)(F)F)cc(C(F)(F)F)c2)ccc2cc(N(C)C)ccc12 [NAP-CF3]	18.25	555	6.29	0.292	135	425	560	<0.67	0.016	positive solvatochromism		clear fluorescence	0.85	LDs staining in live mice liver tissue [4]: excellent LDs staining property; Z-axis depth at which fluorescent signal is detected [4]: up to 70 μm
COc1c(/C=C(\C#N)c2ccc(Br)cc2)ccc2cc(N(C)C)ccc12 [NAP-Br]	9.00	597	4.43	0.126	116	409	525	<0.60	0.014	positive solvatochromism	dropped to some extent	clear fluorescence	0.83	
COc1c(/C=C(\C#N)c2ccc(-c3ccccc3)cc2)ccc2cc(N(C)C)ccc12 [NAP-Ph]	14.89	566	1.42	0.268	114	409	523	<0.34	0.018	positive solvatochromism	dropped to some extent	clear fluorescence	0.90	λem max ([2]; THF/water mixture, water fraction 90%, aggregates): 557 nm

Second part, led by results:

αAIE = Φsolid/Φsolvent [2]	λem max ([2]; Solid) [nm]	τ (fluorescence lifetime) ([2]; Solid) [ns]	Φ (fluorescence quantum yield) ([2]; Solid)	Stokes shift [2, 8] [nm]	λabs max [2, 8] [nm]	λem max [2, 8] [nm]	τ (fluorescence lifetime) [2, 8] [ns]	Φ (fluorescence quantum yield) [2, 8]	Solvatochromism [2]	Fluorescence intensity change under irradiation [5]	Compound	LDs staining [1]	Pearson's coefficient with Nile Red [3]	other results
										drastically decreased	CCN(CC)c1ccc2nc3c4ccccc4c(=O)cc-3oc2c1 [Nile Red, reference compound]	non-specific staining in cytoplasm		
14.47	619	1.39	0.217	128	413	541	<0.67	0.015	positive solvatochromism	dropped to some extent	COc1c(/C=C(\C#N)c2ccc(-c3ccncc3)cc2)ccc2cc(N(C)C)ccc12 [NAP-Py]	clear fluorescence	0.88	TPA cross section (δ) value [6]: very large; Φ (fluorescence quantum yield) ([2]; Solid, listed as NAP-Py^+): 0.048; λem max ([2]; Solid, listed as NAP-Py^+): 676 nm; τ (fluorescence lifetime) ([2]; Solid, listed as NAP-Py^+): 1.32 ns; Φ (fluorescence quantum yield) [2, 9]: 0.008; Stokes shift [2, 9]: 85 nm; λabs max [2, 9]: 455 nm; λem max [2, 9]: 540 nm; τ (fluorescence lifetime) [2, 9]: <0.58 ns; αAIE = Φsolid/Φsolvent ([2]; listed as NAP-Py^+): 6.00; Solvatochromism ([2]; listed as NAP-Py^+): negative solvatochromism; Pearson's coefficient with MitoTracker Deep Red FM [7]: 0.89
